Usually GI50 stands for the concentration that inhibits growth by half. Low values mean greater sensitivity of the cells, high ones lower sensitivity of the cells.

This passage reports GI50 results from patent publication US11254676B2, “Pyrazole derivative compound and use thereof” (HANMI PHARM. CO., LTD., priority 2017, dated 2022).

The test relates to NCI-H1417 cells. In words: Cell growth suppression test, CellTiter-Glo Luminescent Cell Viability Assay. The class given is cell-based. The following applies: Homo sapiens, 240 h; NCI-H1417 cells treated for 10 days. How it is done:
Cell growth suppression effects of the synthesized compounds on NCI-H1417 cells were identified. The cells were treated with the synthesized compounds for 10 days. Then, in order to test the cell growth suppression, CellTiter-Glo Luminescent Cell Viability Assay (available from Promega, USA) was used. This test is to measure emission signals proportional to the number of ATPs based on a fixed amount of ATPs, which represents the presence of metabolically active cells, thereby determining the number of viable cells. The results are expressed as a GI50 value. As for a control, GSK2879552 (available from GlaxoSmithKline USA) was used.
Background: ATP-based viability assays read luminescence as a measure of living cells.

Consider `CN[C@@H]1CCCN(C(=O)c2cc(-c3ccc(C#N)cc3)n(-c3ccc(C(C)(C)C)cc3)n2)C1` [Example 41], for which it took 0.126 µM to inhibit growth by half (GI50).

For the compound `CC(C)(C)c1ccc(-n2nc(C(=O)N3CCC[C@@H](N)C3)cc2-c2ccc(C#N)cc2)c(F)c1` [Example 42, (R)-4-(3-(3-aminopiperidine-1-carbonyl)-1-(4-(tert-butyl)-2-fluorophenyl)-1H-pyrazole-5-yl)benzonitrile], halving of growth (GI50) required 0.226 µM. Take `CC(C)(C)c1ccc(-n2nc(C(=O)N3CCC[C@@H](N)C3)cc2-c2ccc(C#N)c(F)c2)c(F)c1` [Example 43]: the 50% growth inhibitory concentration (GI50) amounted to 0.069 µM.

Turning to `CC(C)(C)c1ccc(-n2nc(C(=O)N3CCCC[C@@H](N)C3)cc2-c2ccc(C#N)c(F)c2)c(F)c1` [Example 44], halving of growth (GI50) required 0.133 µM.

`CN(C)c1ccc(-n2nc(C(=O)N3CCC[C@@H](N)C3)cc2-c2ccc(C#N)cc2)cc1` [Example 53] yielded a 50% growth inhibitory concentration (GI50) of 0.102 µM. With `CN(C)c1ccc(-n2nc(C(=O)N3CCC[C@@H](N)C3)cc2-c2ccc(C#N)cc2)c(F)c1` [Example 54, (R)-4-(3-(3-aminopiperidine-1-carbonyl)-1-(4-(dimethylamino)-2-fluorophenyl)-1H-pyrazole-5-yl)benzonitrile], halving of growth (GI50) required 0.084 µM. Take `N#Cc1ccc(-c2cc(C(=O)N3CCC[C@@H](N)C3)nn2-c2ccc(N3CCCC3)cc2F)cc1` [Example 57, (R)-4-(3-(3-aminopiperidine-1-carbonyl)-1-(2-fluoro-4-(pyrrolidine-1-yl)phenyl)-1H-pyrazole-5-yl)benzonitrile]: growth was halved (GI50) at 0.045 µM. To `N#Cc1ccc(-c2cc(C(=O)N3CCC[C@@H](N)C3)nn2-c2ccc(N3CCCC3)cc2F)cc1F` [Example 58, (R)-4-(3-(3-aminopiperidine-1-carbonyl)-1-(2-fluoro-4-(pyrrolidine-1-yl)phenyl)-1H-pyrazole-5-yl)-2-fluorobenzonitrile] belongs 0.024 µM; to `CN[C@@H]1CCCN(C(=O)c2cc(-c3ccc(C#N)c(F)c3)n(-c3ccc(N4CCCC4)cc3F)n2)C1` [Example 59, (R)-2-fluoro-4-(1-(2-fluoro-4-(pyrrolidine-1-yl)phenyl)-3-(3-(methylamino)piperidine-1-carbonyl)-1H-pyrazole-5-yl)benzonitrile], 0.0097 µM; to `N#Cc1ccc(-c2cc(C(=O)N3CCCC[C@@H](N)C3)nn2-c2ccc(N3CCCC3)cc2F)cc1F` [Example 60, (R)-4-(3-(3-aminoazepane-1-carbonyl)-1-(2-fluoro-4-(pyrrolidine-1-yl)phenyl)-1H-pyrazole-5-yl)-2-fluorobenzonitrile], 0.053 µM. Under `N#Cc1ccc(-c2cc(C(=O)N3CCC[C@@H](N)C3)nn2-c2ccc(N3CC[C@@H](F)C3)cc2F)cc1F` [Example 61, 4-(3-((R)-3-aminopiperidine-1-carbonyl)-1-(2-fluoro-4-((R)-3-fluoropyrrolidine-1-yl)phenyl)-1H-pyrazole-5-yl)-2-fluorobenzonitrile] stands 0.082 µM; under `N#Cc1ccc(-c2cc(C(=O)N3CCC[C@@H](N)C3)nn2-c2ccc(N3CCC(F)(F)C3)cc2F)cc1F` [Example 63, (R)-4-(3-(3-aminopiperidine-1-carbonyl)-1-(4-(3,3-difluoropyrrolidine-1-yl)-2-fluorophenyl)-1H-pyrazole-5-yl)-2-fluorobenzonitrile], 0.033 µM. In turn, `CN[C@@H]1CCCN(C(=O)c2cc(-c3ccc(C#N)c(F)c3)n(-c3ccc(N4CCC(F)(F)C4)cc3F)n2)C1` [Example 64, (R)-4-(1-(4-(3,3-difluoropyrrolidine-1-yl)-2-fluorophenyl)-3-(3-(methylamino)piperidine-1-carbonyl)-1H-pyrazole-5-yl)-2-fluorobenzonitrile] showed a 50% growth inhibitory concentration (GI50) of 0.019 µM. For the compound `COC1CCN(c2ccc(-n3nc(C(=O)N4CCC[C@@H](N)C4)cc3-c3ccc(C#N)c(F)c3)c(F)c2)C1` (stereo partly drawn) [Example 65, 4-(3-((R)-3-aminopiperidine-1-carbonyl)-1-(2-fluoro-4-(3-methoxypyrrolidin-1-yl)phenyl)-1H-pyrazol-5-yl)-2-fluorobenzonitrile], halving of growth (GI50) required 0.058 µM.
